As usually defined, the IC50 is the midpoint of a concentration-inhibition curve.

Assay [1] concerns the target human IRAK4 FL (Full Length) (Homo sapiens (Human), UniProt Q9NWZ3). As to the kind of experiment: IRAK4 Enzymatic DELFIA Assay, Protocol A. It counts as biochemical.
For assay [2], the system named is R848-induced TNFα production by human peripheral blood mononuclear cells (PBMCs). Put plainly: R848 Induced TNFα in Human PBMC Assay. The class given is cell-based. The settings on record: Homo sapiens, PBMC, 3 h, read-out: R848-induced TNFa PBMC IC50 (nM).
Where [3] appears, read: human IRAK4 FL, 0.6 mM ATP (KM), read-out: IRAK4 DELFIA Protocol A IC50.

The structures appear in SMILES notation. Read-outs that look alike come from different tables or passages of the source.

Sequence of human IRAK4 FL (Full Length) (Q9NWZ3 whole entry): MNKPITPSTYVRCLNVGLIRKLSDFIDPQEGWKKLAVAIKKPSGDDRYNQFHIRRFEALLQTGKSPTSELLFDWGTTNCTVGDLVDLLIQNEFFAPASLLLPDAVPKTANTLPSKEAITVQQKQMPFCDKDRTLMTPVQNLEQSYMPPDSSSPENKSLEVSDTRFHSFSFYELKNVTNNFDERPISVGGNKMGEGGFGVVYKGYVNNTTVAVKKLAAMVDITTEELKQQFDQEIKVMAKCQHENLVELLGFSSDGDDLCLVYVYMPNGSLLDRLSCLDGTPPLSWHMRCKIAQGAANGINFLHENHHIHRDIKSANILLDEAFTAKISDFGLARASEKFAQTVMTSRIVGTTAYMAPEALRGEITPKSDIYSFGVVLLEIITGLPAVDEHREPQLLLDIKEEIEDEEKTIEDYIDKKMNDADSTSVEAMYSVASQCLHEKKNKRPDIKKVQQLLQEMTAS

Regarding `CC[C@@]1(F)C[C@@H](COc2nccc3cc(C(N)=O)c(OC(C)C)cc23)NC1=O` [Example 132, 1-{[(2S,4R)-4-ethyl-4-fluoro-5-oxopyrrolidin-2-yl]methoxy}-7-(propan-2-yloxy)isoquinoline-6-carboxamide], the IC50 in assay [1] (setting [3]) is 188 nM; in assay [2], 1180 nM.
In the case of `CC(C)Oc1cc2c(OC[C@@H]3C[C@](C)(F)C(=O)N3)nccc2cc1C(N)=O` [Example 134, 1-{[(2S,4S)-4-fluoro-4-methyl-5-oxopyrrolidin-2-yl]methoxy}-7-(propan-2-yloxy)isoquinoline-6-carboxamide], the IC50 in assay [1] (setting [3]) came out at 1 nM; in assay [2] it was 36 nM.
For the molecule `CC[C@H]1C[C@@H](COc2nccc3cc(C(N)=O)c(OC(C)C)cc23)NC1=O` [Example 135, 1-{[(2S,4S)-4-ethyl-5-oxopyrrolidin-2-yl]methoxy}-7-(propan-2-yloxy)isoquinoline-6-carboxamide], the IC50 was 1.2 nM in assay [1] (setting [3]) and 32 nM in assay [2].
The matching figures for `CC[C@@H]1C[C@@H](COc2nccc3cc(C(N)=O)c(OC(C)C)cc23)NC1=O` [Example 136, 1-{[(2S,4R)-4-ethyl-5-oxopyrrolidin-2-yl]methoxy}-7-(propan-2-yloxy)isoquinoline-6-carboxamide]: 7.8 nM and 184 nM.
The matching figures for `CC(C)Oc1cc2c(OC[C@H]3NC(=O)C[C@@H]3C)nccc2cc1C(N)=O` [Example 141, 1-{[(2S,3S)-3-methyl-5-oxopyrrolidin-2-yl]methoxy}-7-(propan-2-yloxy)isoquinoline-6-carboxamide]: 70 nM and 294 nM.
As to `CC(C)Oc1cc2c(OC[C@@H]3C[C@@H](F)C(=O)N3)nccc2cc1C(N)=O` [Example 144, 1-{[(2S,4R)-4-fluoro-5-oxopyrrolidin-2-yl]methoxy}-7-(propan-2-yloxy)isoquinoline-6-carboxamide], the values for the IC50 in assay [1] (setting [3]) and in assay [2] were 1.4 nM and 141 nM, respectively.
In the case of `CC(C)Oc1cc2c(OC[C@@H]3C[C@H](F)C(=O)N3)nccc2cc1C(N)=O` [Example 145, 1-{[(2S,4S)-4-fluoro-5-oxopyrrolidin-2-yl]methoxy}-7-(propan-2-yloxy)isoquinoline-6-carboxamide], the IC50 in assay [1] (setting [3]) worked out at 0.4 nM; in assay [2], 41 nM.
The matching figures for `COc1cc2c(OC[C@@H]3CC(F)(F)C(=O)N3)nccc2cc1C(N)=O` [Example 146, 1-{[(2S)-4,4-difluoro-5-oxopyrrolidin-2-yl]methoxy}-7-methoxyisoquinoline-6-carboxamide]: 0.2 nM and 15 nM.
As for `CC(C)Oc1cc2c(OCC3(CO)CCC(=O)N3)nccc2cc1C(N)=O` (stereo not drawn) [Example 147, 1-{[2-(hydroxymethyl)-5-oxopyrrolidin-2-yl]methoxy}-7-(propan-2-yloxy)isoquinoline-6-carboxamide], the IC50 came to 59 nM in assay [1] and 1160 nM in assay [2].
With `CC(C)Oc1cc2c(OC[C@@H]3C[C@H](O)C(=O)N3)nccc2cc1C(N)=O` [Example 150, 1-{[(2S,4S)-4-hydroxy-5-oxopyrrolidin-2-yl]methoxy}-7-(propan-2-yloxy)isoquinoline-6-carboxamide], the IC50 in assay [1] (setting [3]) turned out to be 41 nM; in assay [2], 864 nM.
With `CC(C)Oc1cc2c(OC[C@@H]3C[C@@H](CC(F)(F)F)C(=O)N3)nccc2cc1C(N)=O` [Example 151, 1-{[(2S,4S)-5-oxo-4-(2,2,2-trifluoroethyl)pyrrolidin-2-yl]methoxy}-7-(propan-2-yloxy)isoquinoline-6-carboxamide], the IC50 in assay [1] (setting [3]) amounted to 1.2 nM; in assay [2] it was 25 nM.
The matching figures for `CC(C)Oc1cc2c(OC[C@@H]3C[C@H](CC(F)(F)F)C(=O)N3)nccc2cc1C(N)=O` [Example 152, 1-{[(2S,4R)-5-oxo-4-(2,2,2-trifluoroethyl)pyrrolidin-2-yl]methoxy}-7-(propan-2-yloxy)isoquinoline-6-carboxamide]: 6.7 nM and 139 nM.
As to `CC(C)Oc1cc2c(OC[C@@H]3C[C@](F)(CO)C(=O)N3)nccc2cc1C(N)=O` [Example 163, 1-{[(2S,4S)-4-fluoro-4-(hydroxymethyl)-5-oxopyrrolidin-2-yl]methoxy}-7-(propan-2-yloxy)isoquinoline-6-carboxamide], the concentration for half-maximal inhibition (IC50) in assay [1] (setting [3]) was found to be 1400 nM; in assay [2] it was 7450 nM.
The matching figures for `CC(C)Oc1cc2c(OC[C@@H]3C[C@@](F)(CO)C(=O)N3)nccc2cc1C(N)=O` [Example 164, 1-{[(2S,4R)-4-fluoro-4-(hydroxymethyl)-5-oxopyrrolidin-2-yl]methoxy}-7-(propan-2-yloxy)isoquinoline-6-carboxamide]: 1.7 nM and 116 nM.
For `CC(C)Oc1cc2c(OC[C@@H]3C[C@@H](CO)C(=O)N3)nccc2cc1C(N)=O` [Example 166, 1-{[(2S,4S)-4-(hydroxymethyl)-5-oxopyrrolidin-2-yl]methoxy}-7-(propan-2-yloxy)isoquinoline-6-carboxamide], the IC50 was 4.3 nM in assay [1] (setting [3]) and 389 nM in assay [2].
Take `CC(C)Oc1cc2c(OC[C@@H]3CCC(=O)N3)ncc(F)c2cc1C(N)=O` [Example 168, 4-fluoro-1-{[(2S)-5-oxopyrrolidin-2-yl]methoxy}-7-(propan-2-yloxy)isoquinoline-6-carboxamide]: the IC50 in assay [1] (setting [3]) was 6.6 nM; in assay [2], 1460 nM.
For `CC(C)Oc1cc2c(OC[C@H]3NC(=O)[C@H](F)[C@H]3C)nccc2cc1C(N)=O` [Example 170, 1-{[(2S,3S,4R)-4-fluoro-3-methyl-5-oxopyrrolidin-2-yl]methoxy}-7-(propan-2-yloxy)isoquinoline-6-carboxamide], the IC50 in assay [1] (setting [3]) was 0.8 nM; in assay [2] it was 41 nM.
The like results for `CC(C)Oc1cc2c(OC[C@H]3NC(=O)[C@@H]4C[C@H]34)nccc2cc1C(N)=O` [Example 174, 1-{[(1S,2S,5R)-4-oxo-3-azabicyclo[3.1.0]hex-2-yl]methoxy}-7-(propan-2-yloxy)isoquinoline-6-carboxamide] were, in that order, 3.1 nM and 126 nM.
The matching figures for `COc1cc2c(OC[C@@H]3C[C@](C)(F)C(=O)N3)nccc2cc1C(N)=O` [Example 177, 1-{[(2S,4S)-4-fluoro-4-methyl-5-oxopyrrolidin-2-yl]methoxy}-7-methoxyisoquinoline-6-carboxamide]: 3.8 nM and 43 nM.
The like results for `CC(C)Oc1cc2c(OC[C@@H]3C[C@@H](O)C(=O)N3)nccc2cc1C(N)=O` [Example 179, 1-{[(2S,4R)-4-hydroxy-5-oxopyrrolidin-2-yl]methoxy}-7-(propan-2-yloxy)isoquinoline-6-carboxamide] were, in that order, 1.2 nM and 199 nM.
With `CC(C)Oc1cc2c(OC[C@@H]3CCC(=O)N3C)nccc2cc1C(N)=O` [Example 180, 1-{[(2S)-1-methyl-5-oxopyrrolidin-2-yl]methoxy}-7-(propan-2-yloxy)isoquinoline-6-carboxamide], the IC50 in assay [1] (setting [3]) came out at 1790 nM; in assay [2] it was 2560 nM.
The like results for `CC(C)Oc1cc2c(OC[C@@H]3CC(C4(O)CCOCC4)C(=O)N3)nccc2cc1C(N)=O` (stereo partly drawn) [Example 181, 1-{[(2S)-4-(4-hydroxytetrahydro-2H-pyran-4-yl)-5-oxopyrrolidin-2-yl]methoxy}-7-(propan-2-yloxy)isoquinoline-6-carboxamide] were, in that order, 5.7 nM and 503 nM.
Consider `CC(C)Oc1cc2c(OC[C@H]3NC(=O)C(F)(F)[C@H]3C)nccc2cc1C(N)=O` [Example 183, 1-{[(2S,3S)-4,4-difluoro-3-methyl-5-oxopyrrolidin-2-yl]methoxy}-7-(propan-2-yloxy)isoquinoline-6-carboxamide], for which the IC50 in assay [1] (setting [3]) amounted to 0.2 nM; in assay [2], 10 nM.
The like results for `CC(C)Oc1cc2c(OC[C@H]3NC(=O)[C@@H](F)[C@H]3C)nccc2cc1C(N)=O` [Example 187, 1-{[(2S,3S,4S)-4-fluoro-3-methyl-5-oxopyrrolidin-2-yl]methoxy}-7-(propan-2-yloxy)isoquinoline-6-carboxamide] were, in that order, 1.1 nM and 40 nM.
For the molecule `CC[C@H]1[C@@H](COc2nccc3cc(C(N)=O)c(OC(C)C)cc23)NC(=O)C1(F)F` [Example 201, 1-{[(2S,3S)-3-ethyl-4,4-difluoro-5-oxopyrrolidin-2-yl]methoxy}-7-(propan-2-yloxy)isoquinoline-6-carboxamide], the IC50 amounted to 0.4 nM in assay [1] (setting [3]) and 1 nM in assay [2].
The matching figures for `CC(C)Oc1cc2c(OC[C@@H]3CNC(=O)N3)nccc2cc1C(N)=O` [Example 202, 1-{[(4S)-2-oxoimidazolidin-4-yl]methoxy}-7-(propan-2-yloxy)isoquinoline-6-carboxamide]: 85 nM and 922 nM.
Consider `COc1cc2c(OC[C@@H]3C[C@@](F)(CO)C(=O)N3)nccc2cc1C(N)=O` [Example 205, 1-{[(2S,4R)-4-fluoro-4-(hydroxymethyl)-5-oxopyrrolidin-2-yl]methoxy}-7-methoxyisoquinoline-6-carboxamide], for which the IC50 in assay [1] (setting [3]) turned out to be 3.6 nM; in assay [2], 380 nM.
The matching figures for `COc1cc2c(OC[C@@H]3CCC(=O)N3)cncc2cc1C(N)=O` [Example 206, 6-methoxy-4-{[(2S)-5-oxopyrrolidin-2-yl]methoxy}isoquinoline-7-carboxamide]: 216 nM and 4570 nM.
The like results for `COc1cc2c(OC[C@H]3NC(=O)[C@](F)(CO)[C@H]3C)nccc2cc1C(N)=O` [Example 208, 1-{[(2S,3S,4R)-4-fluoro-4-(hydroxymethyl)-3-methyl-5-oxopyrrolidin-2-yl]methoxy}-7-methoxyisoquinoline-6-carboxamide] were, in that order, 1.1 nM and 87 nM.
As to `COc1cc2c(OC[C@@H]3CCC(=O)N3)ncnc2cc1C(N)=O` [Example 209, 6-methoxy-4-{[(2S)-5-oxopyrrolidin-2-yl]methoxy}quinazoline-7-carboxamide], the IC50 was 251 nM in assay [1] (setting [3]) and 9310 nM in assay [2].
